Values joined by “and” are separate entries in the source; they are usually repeats but may differ in a detail not shown here. Identical values can stand only once. Like-named read-outs stand apart in the source and are kept apart here.
Tests used:
[1] = system: primary cultures of resected NSCLC tumours; test: Primary cultures of NSCLC tumours treated 10 days, Cristal Violet quantification; format: cell-based, human; details: for RESISTANT (% of samples) / RESISTANT (number of tumour samples) / SENSITIVES (% of samples) / SENSITIVES (number of tumour samples): primary NSCLC tumour cultures, 0-20 μM, 10 days
Text: Specimens of lung cancer tissue from 84 randomly selected patients who underwent surgical resection of NSCLC between 2001 and 2004 and that were followed up by The Medical Oncology division at La Paz Hospital in Madrid were used for this analysis. No adjuvant therapy was administrated to these patients. The study was approved by the institutional review board of the hospitals, and written informed consent was obtained from all patients.
Resected tissues from NSCLC patients were dissociated (Cell dissociation sieve-tissued grinder Kit CD1, SIGMA), and the obtained cells were seeded in 24 well plates (BD, Falcon, Bioscience, San Jose, Calif., USA). […] The final persistent population in each well was quantified by the method of Cristal Violet as previously described (Rodríguez-González, A. et al., Oncogene, 22:8803-8812). […]

[2] = system: H460 MN58R cells; test: Cell proliferation assay (MTT), H460 line resistant to MN58b; format: cell-based, human
Method: (§1) Cell lines resistant to MN58b and RSM-932A (identified as MN58R and RSM-932A-R, respectively) were generated by prolonged continuous exposure to increasing concentrations of each drug. A parallel control (H460 stock) of the cell line in the absence of the compounds was kept in culture for the same time.
(§2) Cells were seeded on 96-well plates (B D, Falcon, Bioscience, San Jose, Calif., USA) at a density of 6000 cells/well, and incubated for 24 h under standard conditions. Then, cells were treated with different concentrations of the ChoK inhibitors (quadruplicates of each concentration) and maintained for 72 hours. […] Absorbance is read at 595 nm in a VersaMax Microplate Reader (Molecular Devices, Sunnyvale, Calif., USA). For sensitization with acid ceramidase inhibitor, cells were pre-treated 4 hours with the correspondent IC50 for NOE before treatment with ChoK inhibitors. NOE (N-Oleoyl ethanolamine) was obtained from Calbiochem (La Jolla, Calif., USA).
(§3) To further study the mechanism underlying resistance to ChoK inhibition, as well as the implication of acid ceramidase in this effect, we used the human NSCLC-derived H460 cell line for a set of in vitro experiments. […]

[3] = system: Human primary bronchial epithelial cells, NHBE (BEC); test: Cell proliferation assay (MTT), Primary BEC; format: cell-based
Method: (§4) All cell lines used in this study were maintained under standard conditions of temperature (37° C.), humidity (95%), and carbon dioxide (5%). Human primary bronchial epithelial cells, NHBE (BEC) (Cambrex, CC-2541) were grown in BEGM (Bronchial Epithelial cell growth media) BulletKit (Cambrex, CC-3170). Human primary mammary epithelial cells, HMEC (Clonetics, CC-2551) were grown in MEBM medium supplemented with a bullet kit (Clonetics, CC-3150). Epithelial non-small lung cancer cells H460 and H1299, and small cell lung cancer cell lines H510 and H82 were maintained in RPMI supplemented with 10% Fetal Bovine Serum (FBS) (Life Technologies, Grand Island, N.Y.).
as §2, with “conditions.” for “conditions. Then, cells were treated with different concentrations of the ChoK inhibitors (quadruplicates of each concentration) and maintained for 72 hours.”

[4] = system: H460stock cells; test: Cell proliferation assay (MTT), H460stock control line; format: cell-based, human
Method: as §1, §2, §3

[5] = system: H460 non-small lung cancer cells; test: Cell proliferation assay (MTT), H460; format: cell-based, human
[6] = system: H1299 non-small lung cancer cells; test: Cell proliferation assay (MTT), H1299; format: cell-based; details: Homo sapiens
Method: as §4
as §2, with “conditions.” for “conditions. Then, cells were treated with different concentrations of the ChoK inhibitors (quadruplicates of each concentration) and maintained for 72 hours.”

[7] = system: H460 cells; test: Combination index assay (Chou Talalay) cisplatin plus ChoK inhibitors; format: cell-based, human; details: cisplatin 3 h followed by 40 h of ChoK inhibitor, CI<1 synergistic, CIs<0.5 strong synergistic
Method: All experiments were performed in quadruplicate.

[8] = system: H82 small cell lung cancer cells; test: Cell proliferation assay (MTT), H82; format: cell-based; details: Homo sapiens
Method: as §4
as §2, with “conditions.” for “conditions. Then, cells were treated with different concentrations of the ChoK inhibitors (quadruplicates of each concentration) and maintained for 72 hours.”

[9] = system: Human primary mammary epithelial cells, HMEC; test: Cell proliferation assay (MTT), Primary HMEC; format: cell-based
Method: as §4
as §2, with “conditions.” for “conditions. Then, cells were treated with different concentrations of the ChoK inhibitors (quadruplicates of each concentration) and maintained for 72 hours.”

[10] = system: H510 small cell lung cancer cells; test: Cell proliferation assay (MTT), H510; format: cell-based; details: Homo sapiens
Method: as §4
as §2, with “conditions.” for “conditions. Then, cells were treated with different concentrations of the ChoK inhibitors (quadruplicates of each concentration) and maintained for 72 hours.”

[11] = system: H460 RSM-932AR cells; test: Cell proliferation assay (MTT), H460 line resistant to RSM-932A; format: cell-based, human
Method: as §1, §2, §3

[12] = system: SW620 colon cancer derived cells; test: MTT cytotoxicity, ChoKI and TRAIL, SW620; details: SW620 (FIG. 7B)
Text: (§5) To that end, five colon cancer derived cell lines were used: DLD-1, HT-29, HCT-116, SW620 and SW480.

[13] = system: DLD-1, HT-29, HCT-116, SW620 and SW480; test: MTT sensitivity in five colon cancer derived cell lines; format: cell-based; details: five colon cancer derived cell lines (FIG. 7)
Text: as §5

[14] = system: DLD-1 colon cancer derived cells; test: MTT cytotoxicity, ChoKI and TRAIL, DLD-1; details: DLD-1, drug alone
Text: as §5

[15] = system: HT-29 colon cancer derived cells; test: MTT cytotoxicity, ChoKI and TRAIL, HT-29; details: HT-29, drug alone
Text: as §5

[16] = Homo sapiens, NCI-H460, read-out: IC50
[17] = Homo sapiens, NCI-H460, 72 h, H460, single agent (Table 7), read-out: IC50 72 h
[18] = of 84 patients, nearly 100% of cells alive at 20 μM at day 10

Compound: Nc1ccn([C@@H]2O[C@H](CO)[C@@H](O)C2(F)F)c(=O)n1 [Gemcitabine]
- RESISTANT (% of samples) [1]: 65.4%
- RESISTANT (number of tumour samples) [1]: 34
- SENSITIVES (% of samples) [1]: 34.6%
- SENSITIVES (number of tumour samples) [1]: 18

Compound: CN(C)c1cc[n+](Cc2ccc(CCCCc3ccc(C[n+]4ccc(N(C)C)cc4)cc3)cc2)cc1 [MN58b, 1,4-(4-4′-Bis-((4-(dimethylamine)pyridinium-1-yl)methyl)diphenyl)butane dibromide]
- IC50 [2, 16]: 19200 nM
- IC50 ([3]; 48 h, read-out: IC50 48 h): 40500 ± 6200 nM
- IC50 ([3]; 72 h, read-out: IC50 72 h): 18300 ± 4800 nM
- IC50 ([3]; 144 h, read-out: IC50 144 h): 4200 ± 800 nM
- IC50 ([4]; Homo sapiens, read-out: IC50): 390 nM
- IC50 ([5]; Homo sapiens, NCI-H460, 48 h, H460, 48 h, read-out: IC50 48 h): 7030 ± 2030 nM
- IC50 ([5]; Homo sapiens, NCI-H460, 72 h, H460, 72 h (Table 6), read-out: IC50 72 h): 2600 ± 800 nM
- IC50 [5, 17]: 280 nM
- IC50 ([5]; Homo sapiens, NCI-H460, 144 h, H460, 144 h, read-out: IC50 144 h): 1100 ± 100 nM
- IC50 ([5]; Homo sapiens, NCI-H460, H460 (Table 8), read-out: IC50): 280 nM
- IC50 ([6]; NCI-H1299, 48 h, read-out: IC50 48 h): 10300 ± 2500 nM
- IC50 ([6]; NCI-H1299, 72 h, read-out: IC50 72 h): 2700 ± 700 nM
- IC50 ([6]; NCI-H1299, 144 h, read-out: IC50 144 h): 900 ± 100 nM
- Combination index (CI) with cisplatin [7]: 0.1
- IC50 ([8]; H82, 48 h, read-out: IC50 48 h): 1900 ± 200 nM
- IC50 ([8]; H82, 72 h, read-out: IC50 72 h): 800 ± 40 nM
- IC50 ([8]; H82, 144 h, read-out: IC50 144 h): 270 ± 10 nM
- IC50 ([9]; 48 h, read-out: IC50 48 h): 44700 ± 4950 nM
- IC50 ([9]; 72 h, read-out: IC50 72 h): 20900 ± 2700 nM
- IC50 ([9]; 144 h, read-out: IC50 144 h): 3400 ± 130 nM
- IC50 ([10]; NCI-H510, 48 h, read-out: IC50 48 h): 1100 ± 100 nM
- IC50 ([10]; NCI-H510, 72 h, read-out: IC50 72 h): 400 ± 50 nM
- IC50 ([10]; NCI-H510, 144 h, read-out: IC50 144 h): 100 ± 30 nM
- samples highly sensitive (%) ([1]; among the 45 sensitive tumours): 33.3%
- samples partially sensitive (%) ([1]; among the 45 sensitive tumours): 66.7%
- samples partially sensitive (number) ([1]; among the 45 sensitive tumours, around 50% of cells alive at end of treatment): 30
- samples highly sensitive (number) ([1]; among the 45 sensitive tumours, viability abolished at low concentrations, day 10): 15
- tumours sensitive to the antiproliferative effect (%) ([1]; of 84 patients, day 10): 53.6%
- tumours sensitive to the antiproliferative effect (number) ([1]; of 84 patients, day 10): 45
- samples fully resistant (%) [1, 18]: 46,4%
- samples fully resistant (number) [1, 18]: 39
- RESISTANT (% of samples) [1]: 44.4%
- RESISTANT (number of tumour samples) [1]: 28
- SENSITIVES (% of samples) [1]: 55.5% and 55%
- SENSITIVES (number of tumour samples) [1]: 35
- IC50 [11, 16]: 28800 nM

Compound: CCCCCCCC/C=C\CCCCCCCC(=O)NCCO [NOE, N-oleoylethanolamine, reference compound]
- IC50 [5, 17]: 32500 nM

Compound: CC(=O)O[C@H]1C(=O)[C@@]2(C)[C@H]([C@H](OC(=O)c3ccccc3)[C@]3(O)C[C@H](OC(=O)[C@H](O)[C@@H](NC(=O)c4ccccc4)c4ccccc4)C(C)=C1C3(C)C)[C@]1(OC(C)=O)CO[C@@H]1C[C@@H]2O [Taxol]
- RESISTANT (% of samples) [1]: 56.5%
- RESISTANT (number of tumour samples) [1]: 35
- SENSITIVES (% of samples) [1]: 43.5%
- SENSITIVES (number of tumour samples) [1]: 27

Compound: CCC1=C[C@@H]2CN(C1)Cc1c([nH]c3ccccc13)[C@@](C(=O)OC)(c1cc3c(cc1OC)N(C)[C@H]1[C@@](O)(C(=O)OC)[C@H](OC(C)=O)[C@]4(CC)C=CCN5CC[C@]31[C@@H]54)C2 [Vinolrelbine, vinorelbine]
- RESISTANT (% of samples) [1]: 61.5%
- RESISTANT (number of tumour samples) [1]: 24
- SENSITIVES (% of samples) [1]: 38.5%
- SENSITIVES (number of tumour samples) [1]: 15

Compound: [NH2][Pt]([NH2])([Cl])[Cl] [cDDP, cisplatin, reference compound]
- IC50 [2]: 2 µg/mL
- IC50 [4]: 4.5 µg/mL
- IC50 ([5]; H460): 5 µg/mL
- RESISTANT (% of samples) [1]: 50%
- RESISTANT (number of tumour samples) [1]: 31
- SENSITIVES (% of samples) [1]: 50%
- SENSITIVES (number of tumour samples) [1]: 31
- IC50 [11]: 1.5 µg/mL

Compound: TRAIL: extracellular domain of human TRAIL (amino acids 95-281)
- sensitivity to treatment [12]: nearly resistant
- sensitivity across the cell lines [13]: very similar for all cell lines except for SW620
- cytotoxicity, percentage of cell death [14]: 12%
- cytotoxicity [15]: 18%

— patent US20100068302A1, “METHODS AND COMPOSITIONS FOR THE TREATMENT OF CANCER” (TRASLATIONAL CANCER DRUGS PHARMA, S.L., priority 2008, published 2010)
